In the assay the target is Beta-3 Adrenergic Receptor (Homo sapiens (Human), UniProt P13945). The experiment in a line: HTRF cAMP antagonist assay (IC50 determination). It counts as cell-based. The following applies: CHO-K1 cells stably expressing recombinant receptor; antagonism of isoproterenol at EC90; cAMP readout. The essentials: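 CHO-K1 cells stably expressing the recombinant receptor were preincubated with compound (10-point, 5-fold dilutions; top final typically 10 or 100 μM) in PBS with 1 mM IBMX, then stimulated with isoproterenol at its EC90 for 1 h at room temperature. cAMP was read by HTRF against an on-plate standard curve.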
Beta-3 Adrenergic Receptor, sequence (P13945 whole entry, species assumed): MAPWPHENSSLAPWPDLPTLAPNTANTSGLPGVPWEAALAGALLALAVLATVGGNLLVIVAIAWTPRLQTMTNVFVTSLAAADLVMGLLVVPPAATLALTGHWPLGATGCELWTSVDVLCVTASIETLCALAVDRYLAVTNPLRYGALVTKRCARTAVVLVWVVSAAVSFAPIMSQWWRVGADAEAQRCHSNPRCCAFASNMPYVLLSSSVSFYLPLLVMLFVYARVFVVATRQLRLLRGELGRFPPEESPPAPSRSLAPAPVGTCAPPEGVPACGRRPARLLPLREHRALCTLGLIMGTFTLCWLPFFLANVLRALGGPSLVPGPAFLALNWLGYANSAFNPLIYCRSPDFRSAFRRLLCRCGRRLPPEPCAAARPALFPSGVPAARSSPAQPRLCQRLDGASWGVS
A general note: In TR-FRET formats the signal depends on donor and acceptor labels being close together.

Molecules are shown by their SMILES.

In the case of `CCn1cc(S(=O)(=O)N2CCC3(CC2)C[C@@H](NC[C@H](O)COc2cccc(S(=O)(=O)C4CC4)c2)CO3)c(=O)c2cccc(F)c21` [Compound 333, 3-((R)-3-((S)-3-(3-(cyclopropylsulfonyl)phenoxy)-2-hydroxypropylamino)-1-oxa-8-azaspiro[4.5]decan-8-ylsulfonyl)-1-ethyl-8-fluoroquinolin-4(1H)-one], the IC50 (as a rule, the midpoint of a concentration-inhibition curve) turned out to be 16.3 nM.

On to `CS(=O)(=O)c1cccc(OC[C@@H](O)CNC2COC3(CCN(S(=O)(=O)c4cccc(Cl)c4)CC3)C2)c1` (stereo partly drawn) [Compound 31, (2S)-1-(8-(3-chlorophenylsulfonyl)-1-oxa-8-azaspiro[4.5]decan-3-ylamino)-3-(3-(methylsulfonyl)phenoxy)propan-2-ol], for which the IC50 is 49.3 nM.

Turning to `CC(C)S(=O)(=O)c1cccc(OC[C@@H](O)CN[C@H]2COC3(CCN(S(=O)(=O)c4cnc5cc[nH]c5c4)CC3)C2)c1` [Compound 321, (S)-1-((R)-8-(1H-pyrrolo[3,2-b]pyridin-6-ylsulfonyl)-1-oxa-8-azaspiro[4.5]decan-3-ylamino)-3-(3-(isopropylsulfonyl)phenoxy)propan-2-ol], the IC50 was 17.8 nM.

Consider `CCn1cc(S(=O)(=O)N2CCC3(CC2)C[C@@H](NC[C@H](O)COc2cccc(S(=O)(=O)C4CC4)c2)CO3)c(=O)c2ccccc21` [Compound 297, 3-((R)-3-((S)-3-(3-(cyclopropylsulfonyl)phenoxy)-2-hydroxypropylamino)-1-oxa-8-azaspiro[4.5]decan-8-ylsulfonyl)-1-ethylquinolin-4(1H)-one], for which the IC50 was 26.5 nM.

For the compound `CCOc1ccc(-c2ccc(CN)cc2)cc1S(=O)(=O)N1CCC2(CC1)C[C@H](NC[C@H](O)COc1cccc(S(=O)(=O)CC(N)=O)c1)CO2` [Compound 205, 2-(3-((S)-3-((S)-8-(4′-(aminomethyl)-4-ethoxybiphenyl-3-ylsulfonyl)-1-oxa-8-azaspiro[4.5]decan-3-ylamino)-2-hydroxypropoxy)phenylsulfonyl)acetamide], the IC50 turned out to be 92.2 nM.

`O=S(=O)(c1cccc(OC[C@@H](O)CN[C@H]2COC3(CCN(S(=O)(=O)c4cnc5c(c4)OCCO5)CC3)C2)c1)C1CC1` [Compound 289, (S)-1-(3-(cyclopropylsulfonyl)phenoxy)-3-((R)-8-(2,3-dihydro-[1,4]dioxino[2,3-b]pyridin-7-ylsulfonyl)-1-oxa-8-azaspiro[4.5]decan-3-ylamino)propan-2-ol]: the IC50 came out at 65.8 nM.

Regarding `CCCn1cc(-c2cccc(S(=O)(=O)N3CCC4(CC3)CC(NC[C@H](O)COc3cccc(S(C)(=O)=O)c3)CO4)c2)cn1` (stereo partly drawn) [Compound 38, (2S)-1-(3-(methylsulfonyl)phenoxy)-3-(8-(3-(1-propyl-1H-pyrazol-4-yl)phenylsulfonyl)-1-oxa-8-azaspiro[4.5]decan-3-ylamino)propan-2-ol], the IC50 turned out to be 3.99 nM.

On to `CS(=O)(=O)c1cccc(OC[C@@H](O)CNC2COC3(CCN(C(=O)c4ccc5[nH]ccc5c4)CC3)C2)c1` (stereo partly drawn) [Compound 67, (3-((S)-2-hydroxy-3-(3-(methylsulfonyl)phenoxy)propylamino)-1-oxa-8-azaspiro[4.5]decan-8-yl)(1H-indol-5-yl)methanone], for which the IC50 is 822 nM.

On to `CS(=O)(=O)c1cccc(OC[C@@H](O)CNC2COC3(CCN(C(=O)c4ccc5ccccc5c4)CC3)C2)c1` (stereo partly drawn) [Compound 57, (3-((S)-2-hydroxy-3-(3-(methylsulfonyl)phenoxy)propylamino)-1-oxa-8-azaspiro[4.5]decan-8-yl)(naphthalen-2-yl)methanone], for which the IC50 came to 487 nM.

On to `O=S(=O)(CC1CC1)c1cccc(OC[C@@H](O)CN[C@H]2COC3(CCN(S(=O)(=O)c4cnc5ccccc5c4)CC3)C2)c1` [Compound 140, (S)-1-(3-(cyclopropylmethylsulfonyl)phenoxy)-3-((R)-8-(quinolin-3-ylsulfonyl)-1-oxa-8-azaspiro[4.5]decan-3-ylamino)propan-2-ol], for which the IC50 turned out to be 45.9 nM.

On to `CCn1cc(S(=O)(=O)N2CCC3(CC2)C[C@@H](NC[C@H](O)COc2cccc(S(=O)(=O)C(C)C)c2)CO3)c(=O)c2cccc(F)c21` [Compound 331, 1-ethyl-8-fluoro-3-((R)-3-((S)-2-hydroxy-3-(3-(isopropylsulfonyl)phenoxy)propylamino)-1-oxa-8-azaspiro[4.5]decan-8-ylsulfonyl)quinolin-4(1H)-one], for which the half-maximal inhibitory concentration (IC50) is 30 nM.

In the case of `O=S(=O)(c1cccc(OC[C@@H](O)CNC2COC3(CCN(S(=O)(=O)c4ccc5ccccc5c4)CC3)C2)c1)C1CNC1` (stereo partly drawn) [Compound 21, (2S)-1-(3-(azetidin-3-ylsulfonyl)phenoxy)-3-(8-(naphthalen-2-ylsulfonyl)-1-oxa-8-azaspiro[4.5]decan-3-ylamino)propan-2-ol], the IC50 was 252 nM.

With `COc1ccc(S(=O)(=O)N2CCC3(CC2)C[C@@H](NC[C@H](O)COc2cccc(S(=O)(=O)C4(CO)CC4)c2)CO3)cc1Br` [Compound 193, (S)-1-((R)-8-(3-bromo-4-methoxyphenylsulfonyl)-1-oxa-8-azaspiro[4.5]decan-3-ylamino)-3-(3-(1-(hydroxymethyl)cyclopropylsulfonyl)phenoxy)propan-2-ol], the IC50 came out at 26.9 nM.

On to `CS(=O)(=O)c1cccc(OC[C@@H](O)CNC2COC3(CCN(S(=O)(=O)c4ccccn4)CC3)C2)c1` (stereo partly drawn) [Compound 72, (2S)-1-(3-(methylsulfonyl)phenoxy)-3-(8-(pyridin-2-ylsulfonyl)-1-oxa-8-azaspiro[4.5]decan-3-ylamino)propan-2-ol], for which the IC50 came to 329 nM.

As for `O=S(=O)(c1cccc(OC[C@@H](O)CN[C@H]2COC3(CCN(S(=O)(=O)c4cnc5cc(F)ccc5c4O)CC3)C2)c1)C1CC1` [Compound 329, 3-((R)-3-((S)-3-(3-(cyclopropylsulfonyl)phenoxy)-2-hydroxypropylamino)-1-oxa-8-azaspiro[4.5]decan-8-ylsulfonyl)-7-fluoroquinolin-4-ol], the IC50 is 29.5 nM.

On to `O=c1c(S(=O)(=O)N2CCC3(CC2)C[C@@H](NC[C@H](O)COc2cccc(S(=O)(=O)C4CC4)c2)CO3)c[nH]c2ccccc12` [Compound 326, 3-((R)-3-((S)-3-(3-(cyclopropylsulfonyl)phenoxy)-2-hydroxypropylamino)-1-oxa-8-azaspiro[4.5]decan-8-ylsulfonyl)quinolin-4(1H)-one], for which the half-inhibitory concentration (IC50) came out at 17.3 nM.

In the case of `O=S(=O)(CCO)c1cccc(OC[C@@H](O)CN[C@H]2COC3(CCN(S(=O)(=O)c4cccc(-c5cccnc5)c4)CC3)C2)c1` [Compound 97, (S)-1-(3-(2-hydroxyethylsulfonyl)phenoxy)-3-((R)-8-(3-(pyridin-3-yl)phenylsulfonyl)-1-oxa-8-azaspiro[4.5]decan-3-ylamino)propan-2-ol], the half-maximal inhibitory concentration (IC50) worked out at 212 nM.

For `CCC(C)S(=O)(=O)c1cccc(OC[C@@H](O)CNC2COC3(CCN(S(=O)(=O)c4ccc5ccccc5c4)CC3)C2)c1` (stereo partly drawn) [Compound 25, (2S)-1-(3-(sec-butylsulfonyl)phenoxy)-3-(8-(naphthalen-2-ylsulfonyl)-1-oxa-8-azaspiro[4.5]decan-3-ylamino)propan-2-ol], the IC50 amounted to 54.6 nM.

As for `CS(=O)(=O)c1cccc(OC[C@@H](O)CNC2COC3(CCN(S(=O)(=O)c4cccc(-c5ccncc5)c4)CC3)C2)c1` (stereo partly drawn) [Compound 43, (2S)-1-(3-(methylsulfonyl)phenoxy)-3-(8-(3-(pyridin-4-yl)phenylsulfonyl)-1-oxa-8-azaspiro[4.5]decan-3-ylamino)propan-2-ol], the half-inhibitory concentration (IC50) came to 32.4 nM.

Turning to `NC(=O)CCS(=O)(=O)c1cccc(OC[C@@H](O)CN[C@H]2COC3(CCN(S(=O)(=O)c4ccc5ncccc5c4)CC3)C2)c1` [Compound 133, 3-(3-((S)-2-hydroxy-3-((R)-8-(quinolin-6-ylsulfonyl)-1-oxa-8-azaspiro[4.5]decan-3-ylamino)propoxy)phenylsulfonyl)propanamide], the IC50 came out at 443 nM.

Turning to `O=S(=O)(CCO)c1cc(F)cc(OC[C@@H](O)CN[C@H]2COC3(CCN(S(=O)(=O)c4ccc5ncccc5c4)CC3)C2)c1` [Compound 249, (S)-1-(3-fluoro-5-(2-hydroxyethylsulfonyl)phenoxy)-3-((R)-8-(quinolin-6-ylsulfonyl)-1-oxa-8-azaspiro[4.5]decan-3-ylamino)propan-2-ol], the 50% inhibitory concentration (IC50) came to 224 nM.

Consider `O=S(=O)(c1cccc(OC[C@@H](O)CN[C@H]2COC3(CCN(S(=O)(=O)c4cnc5c(c4)CCCC5)CC3)C2)c1)C1CC1` [Compound 282, (S)-1-(3-(cyclopropylsulfonyl)phenoxy)-3-((R)-8-(5,6,7,8-tetrahydroquinolin-3-ylsulfonyl)-1-oxa-8-azaspiro[4.5]decan-3-ylamino)propan-2-ol], for which the IC50 is 23.7 nM.

For the compound `Cn1cnc2cc(S(=O)(=O)N3CCC4(CC3)C[C@@H](NC[C@H](O)COc3cccc(S(=O)(=O)C5CC5)c3)CO4)cnc21` [Compound 279, (S)-1-(3-(cyclopropylsulfonyl)phenoxy)-3-((R)-8-(3-methyl-3H-imidazo[4,5-b]pyridin-6-ylsulfonyl)-1-oxa-8-azaspiro[4.5]decan-3-ylamino)propan-2-ol], the IC50 worked out at 39.7 nM.

Consider `Cc1c(S(=O)(=O)N2CCC3(CC2)C[C@@H](NC[C@H](O)COc2cccc(S(=O)(=O)C4CC4)c2)CO3)cnc2c1N(C)CCO2` [Compound 275, (S)-1-(3-(cyclopropylsulfonyl)phenoxy)-3-((R)-8-(1,8-dimethyl-2,3-dihydro-1H-pyrido[2,3-b][1,4]oxazin-7-ylsulfonyl)-1-oxa-8-azaspiro[4.5]decan-3-ylamino)propan-2-ol], for which the half-maximal inhibitory concentration (IC50) was determined as 62.3 nM.

As for `CCn1cc(S(=O)(=O)N2CCC3(CC2)C[C@@H](NC[C@H](O)COc2cccc(S(=O)(=O)C4CC4)c2)CO3)c(=O)c2ccc(F)cc21` [Compound 316, 3-((R)-3-((S)-3-(3-(cyclopropylsulfonyl)phenoxy)-2-hydroxypropylamino)-1-oxa-8-azaspiro[4.5]decan-8-ylsulfonyl)-1-ethyl-7-fluoroquinolin-4(1H)-one], the 50% inhibitory concentration (IC50) came to 63.8 nM.

Source of the values: patent US10927123B2, “Modulators of the beta-3 adrenergic receptor useful for the treatment or prevention of disorders related thereto” (Arena Pharmaceuticals, Inc., priority 2016, dated 2021).
